# Key:
# Type in all cases: functional
# Plutella xylostella [1] = assay: Antifeedant activity against third-instar larval stage of Plutella xylostella (diamondback moth) infested compound-treated leaf assessed as reduction in feeding damage at 3341 mg a.i/L after 48 hr by leaf disk assay relative to untreated control; parameters: scale not given: the % may be the effect or the level left
# Plutella xylostella [2] = assay: Antifeedant activity against third-instar larval stage of Plutella xylostella (diamondback moth) infested compound-treated leaf assessed as time required to stop feeding at 3341 mg a.i/L after 48 hr by leaf disk assay (reference value: > 2880 min)
# Trichoplusia ni [3] = assay: Antifeedant activity against third-instar larval stage of Trichoplusia ni (cabbage looper) infested compound-treated leaf assessed as time required to stop feeding at 3341 mg a.i/L after 48 hr by leaf disk assay (reference value: > 2880 min)
# Spodoptera exigua [4] = assay: Antifeedant activity against third-instar larval stage of Spodoptera exigua infested compound-treated leaf assessed as time required to stop feeding at 3341 mg a.i/L after 48 hr by leaf disk assay (reference value: > 2880 min)
# Spodoptera exigua [5] = assay: Antifeedant activity against third-instar larval stage of Spodoptera exigua infested compound-treated leaf assessed as reduction in feeding damage at 3341 mg a.i/L after 48 hr by leaf disk assay relative to untreated control; parameters: scale not given: the % may be the effect or the level left
# Helicoverpa zea [6] = assay: Antifeedant activity against third-instar larval stage of Helicoverpa zea (corn earworm) infested compound-treated leaf assessed as time required to stop feeding at 3341 mg a.i/L after 48 hr by leaf disk assay (reference value: > 2880 min)
# Trichoplusia ni [7] = assay: Antifeedant activity against third-instar larval stage of Trichoplusia ni (cabbage looper) infested compound-treated leaf assessed as reduction in feeding damage at 3341 mg a.i/L after 48 hr by leaf disk assay relative to untreated control; parameters: scale not given: the % may be the effect or the level left
# Helicoverpa zea [8] = assay: Antifeedant activity against third-instar larval stage of Helicoverpa zea (corn earworm) infested compound-treated leaf assessed as reduction in feeding damage at 3341 mg a.i/L after 48 hr by leaf disk assay relative to untreated control; parameters: scale not given: the % may be the effect or the level left
smiles,measurement,setting,value
CNC(=O)ON=C(C)SC [METHOMYL],Activity,Plutella xylostella [1],98.5%
same,Time,Plutella xylostella [2],3.6 min
same,Time,Trichoplusia ni [3],4.2 min
same,Time,Spodoptera exigua [4],5.9 min
same,Activity,Spodoptera exigua [5],99.8%
same,Time,Helicoverpa zea [6],3.8 min
same,Activity,Trichoplusia ni [7],99.9%
same,Activity,Helicoverpa zea [8],99.7%

# Source: ChEMBL document CHEMBL3044623, “Feeding cessation effects of chlorantraniliprole, a new anthranilic diamide insecticide, in comparison with several insecticides in distinct chemical classes and mode-of-action groups” (2009)
